Data reported in patent US7423017B2, “Method for treating cartilage disorders” (Genentech, Inc., priority 1997, dated 2008).
Each block holds one compound with its values, some of them ahead of it. Positions of bridges follow the written chain, without caps; N, C: chain ends. Residues, ends and D or L forms follow the SMILES beside them.

Legend:
[1] = tested on: human articular cartilage explants; experiment: human articular cartilage explants from diseased joints: matrix synthesis (35S-sulfate uptake); assay type: cell-based; settings: for matrix synthesis in diseased human articular cartilage: 40 ng/ml
Experimental: (§1) The metacarpophalangeal joint of a six-month old pig was cultured as described above for bovine articular cartilage in Example 8. This explant was cultured in media alone or in media with D12K, D12R, or wild-type IGF-1 (at 10 nM) alone or in the presence of IL-1α at 1 ng/ml, as described above. Human explants were from patients undergoing joint replacement surgery. Articular cartilage was harvested, aliquoted (40-45 mg/tube) and cultured as above. […] Fresh media was added on days 0, 1, 2, and 3. Matrix breakdown was determined by measuring the amount of proteoglycans in the media using the DMMB assay as set forth above. Matrix (proteoglycan) synthesis was determined by measuring ^35S-sulfate uptake as set forth above.
(§2) Human articular cartilage explants were cultured in media or treated with IGF-1 by itself or in combination with either BP3-40 or BP3-15 at 0.1 mg/ml as set forth above. Matrix breakdown was determined by measuring the release of proteoglycans into media as described above. Matrix synthesis was determined by counting the amount of ^35S-sulfate incorporated into the cartilage tissue as described above.
The same Material and Methods (for human tissue) were used as described above, using articular cartilage explants from human joints removed from patients undergoing joint replacement. These explants were cultured with IGF-1 alone at 40 ng/ml, or IGF-1 with BP1-17, BP3-15, or BP1-16 (0.1 mg/ml), or IGF-1 with buffer (HEPES).

[2] = tested on: porcine articular cartilage explants; experiment: porcine articular cartilage explants: matrix breakdown; assay type: cell-based, pig; settings: 10 nM; for IL-1α-induced matrix breakdown: IL-1α 1 ng/ml
Experimental: as §1

[3] = tested on: porcine articular cartilage explants; experiment: porcine articular cartilage explants: matrix synthesis; assay type: cell-based, pig; settings: 10 nM; for IL-1α-induced inhibition of proteoglycan synthesis: IL-1α 1 ng/ml
Experimental: as §1

IGFBP-3 [4] = target: T1, IGFBP-3 (Homo sapiens, UniProt P17936); experiment: binding curves of phage displaying IGF-1 variants on immobilized IGFBP-1 or IGFBP-3
T1 construct: made in house
From the text: Phage particles displaying IGF-1 variants in which the aspartate residue at position 12 was mutated to lysine (D12K) or arginine (D12R) were constructed as described in Dubaquié and Lowman, supra. Furthermore, these protein variants were expressed in E. coli and purified as described in Dubaquié and Lowman, supra.
The wild-type IGF-1 phage particles bound to IGFBP-1 or IGFBP-3 generated similar detection signal intensities.

[5] = tested on: human articular cartilage explants; experiment: human articular cartilage explants: matrix breakdown (proteoglycan release); assay type: cell-based; settings: peptide 0.1 mg/ml
Experimental: as §1, §2

type I IGF receptor = target: T2, type I IGF receptor (Homo sapiens, UniProt P08069); experiment: KIRA assay of IGF type I receptor activation; assay type: cell-based; settings: about 13 nM or […] variant
T2 construct: monitors the extent of cytoplasmic IGF receptor phosphorylation upon extracellular stimulation by ligand; endogenous in cells; MCF-7 by my knowledge of the cited method
From the text: The Kinase Receptor Activation Assay (KIRA) specifically and quantitatively monitors the extent of cytoplasmic IGF receptor phosphorylation upon extracellular stimulation by ligand (Sadick et al., J. Pharm. Biomed. Analysis, 19 (6): 883-891 (1999)).

IGFBP-1 [6] = experiment: competitive phage ELISA of IGF-1 mutants, IGFBP-1; assay type: binding, human; settings: relative IC50 IGFBP-1/relative IC50 IGFBP-3
Method in brief: (§3)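 Alanine-scan IGF-1 mutants on phage competed with soluble IGFBP-1 or IGFBP-3 (threefold dilutions over six logs, from 5 μM and 500 nM respectively) for binding to plates coated with 1 μg/ml of the same protein in PBS pH 7.2. Incubation was 1 h at room temperature in 0.5% Tween 20/PBS. Bound phage was detected by anti-phage/HRP ELISA; IC50 is the mean±SD of at least two clones.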

IGFBP-3 [7] = target: T1, IGFBP-3; experiment: competitive phage ELISA of IGF-1 mutants, IGFBP-3; assay type: binding; settings: phage display, soluble IGFBP-3 competitor
Method in brief: as §3

IGFBP-1 [8] = target: T3, IGFBP-1 (Homo sapiens, UniProt P08833); experiment: BIACORE kinetics: IGFBP-1 binding to immobilized IGF-1 variants; design: made in house; host or cells: CHO cells; settings: 25 C
T3 sequence (P08833 26-259): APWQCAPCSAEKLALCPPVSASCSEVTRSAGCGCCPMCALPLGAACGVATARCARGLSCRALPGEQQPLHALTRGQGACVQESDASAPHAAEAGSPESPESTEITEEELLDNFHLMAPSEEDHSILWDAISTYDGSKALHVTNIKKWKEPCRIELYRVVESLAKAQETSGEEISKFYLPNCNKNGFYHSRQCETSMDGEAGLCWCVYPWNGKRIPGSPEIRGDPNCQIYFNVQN
Experimental: (§4) The binding affinities of the IGF variants for IGFBP-1 and IGFBP-3 were determined using a BIACORE™-2000 real time kinetic interaction analysis system (Biacore, Inc., Piscataway, N.J.) to measure association (ka) and dissociation (kd) rates. Carboxymethylated dextran biosensor chips (CM5, BIAcore Inc.) were activated with EDC (N-ethyl-N′-(3-dimethylaminopropyl)-carbodiimide hydrochloride) and NHS(N-hydroxysuccinimide) according to the supplier's instructions. For immobilization, IGF mutants in 20 mM sodium acetate, pH 4.8, were injected onto the biosensor chip at a concentration of 50 μg/ml to yield approximately 450-600 RU's (resonance-responce units) of covalently-coupled protein. Unreacted groups were blocked with an injection of 1 M ethanolamine. Kinetic measurements were carried out by injecting two-fold serial dilutions (starting at 1 μM) of either IGFBP-1 or IGFBP-3 in running buffer (PBS, 0.05% TWEEN 20™, 0.1% ovalbumin, 0.1% sodium azide) at 25 °C using a flow rate of 20 μl/min. Association rates (ka) and dissociation rates (kd) were calculated separately using a 1:1 Langmuir™ association model in the BIACORE™ evaluation software v. 3.0. The equilibrium dissociation constant (KD) was calculated as kd/ka.
(§5) For measurements of IGFBP-1 binding to IGF-1, kinetics experiments were conducted using a single-cysteine IGF-1 variant, Y31C, that was immobilized onto the sensor chip surface via a disulfide linkage (BIACORE™ System Manual Supplement, 5a-1, Pharmacia (1991)).

IGFBP-1 [9] = target: T3, IGFBP-1; experiment: competitive phage ELISA of IGF-1 mutants, IGFBP-1; assay type: binding; design: made in house; host or cells: CHO cells; settings: phage display, soluble IGFBP-1 competitor
Method in brief: as §3

IGFBP-1 [10] = experiment: BIACORE kinetics: IGFBP-1 binding to immobilized IGF-1 variants; design: species or system human; settings: from relative KD values
Experimental: as §4, §5

IGFBP-3 [11] = target: T1, IGFBP-3; experiment: BIACORE kinetics: IGFBP-3 binding to immobilized IGF-1 variants; settings: 25 C
Experimental: as §4

IGFBP-1 [12] = target: T3, IGFBP-1; experiment: radiolabeled IGF-1 plate assay, IGFBP-1 plate; assay type: binding; design: made in house; host or cells: CHO cells
Experimental: (§6) As an additional assay of peptide activity, several peptides were tested in an assay using ^125I-labeled IGF-1 to measure inhibition of IGFBP binding, as described above (Assay 3). Serial dilutions of peptide were added to an IGFBP-1 or an IGFBP-3 plate. Thereafter, ^125I-labeled IGF-1 was added and the plates were incubated for 2 hours. The plates were then washed and counted to determine the amount of bound IGF-1.

IGFBP-3 [13] = target: T1, IGFBP-3; experiment: radiolabeled IGF-1 plate assay, IGFBP-3 plate; assay type: binding
Experimental: as §6

IGFBP-3 [14] = target: T1, IGFBP-3; experiment: BIACORE competition assay: IGFBP-3 binding to immobilized IGF-1
Experimental: IGF-1 was immobilized on a dextran chip for inhibition assays using a BIACORE™ 2000 surface-plasmon-resonance device (BIAcore, Inc., Piscataway, N.J.) to measure free binding protein. IGF-1 was biotinylated as described above, and injected over a chip to which streptavidin had been coupled (BIAcore, Inc.) to give 400 to 800 RU (response units) of immobilized IGF-1. […] Serial dilutions of peptide were mixed with a constant concentration (40 nM) of IGFBP-3. After incubation for >1 hour at room temperature, an aliquot of 20 μL was injected at a flow rate of 20 μL/min over the IGF-1 chip. Following the injection, a response reading was taken to measure the relative amount of IGFBP-3 bound to the IGF-1.

T1 sequence (P17936 28-291): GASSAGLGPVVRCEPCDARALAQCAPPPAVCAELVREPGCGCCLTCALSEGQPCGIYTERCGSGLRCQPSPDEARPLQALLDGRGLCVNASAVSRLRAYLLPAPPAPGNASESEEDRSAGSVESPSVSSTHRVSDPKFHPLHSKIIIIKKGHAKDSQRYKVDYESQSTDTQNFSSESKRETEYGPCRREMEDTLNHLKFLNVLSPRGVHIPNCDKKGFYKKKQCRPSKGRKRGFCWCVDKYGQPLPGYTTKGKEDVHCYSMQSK
T2 sequence (P08069 31-736 limits assumed): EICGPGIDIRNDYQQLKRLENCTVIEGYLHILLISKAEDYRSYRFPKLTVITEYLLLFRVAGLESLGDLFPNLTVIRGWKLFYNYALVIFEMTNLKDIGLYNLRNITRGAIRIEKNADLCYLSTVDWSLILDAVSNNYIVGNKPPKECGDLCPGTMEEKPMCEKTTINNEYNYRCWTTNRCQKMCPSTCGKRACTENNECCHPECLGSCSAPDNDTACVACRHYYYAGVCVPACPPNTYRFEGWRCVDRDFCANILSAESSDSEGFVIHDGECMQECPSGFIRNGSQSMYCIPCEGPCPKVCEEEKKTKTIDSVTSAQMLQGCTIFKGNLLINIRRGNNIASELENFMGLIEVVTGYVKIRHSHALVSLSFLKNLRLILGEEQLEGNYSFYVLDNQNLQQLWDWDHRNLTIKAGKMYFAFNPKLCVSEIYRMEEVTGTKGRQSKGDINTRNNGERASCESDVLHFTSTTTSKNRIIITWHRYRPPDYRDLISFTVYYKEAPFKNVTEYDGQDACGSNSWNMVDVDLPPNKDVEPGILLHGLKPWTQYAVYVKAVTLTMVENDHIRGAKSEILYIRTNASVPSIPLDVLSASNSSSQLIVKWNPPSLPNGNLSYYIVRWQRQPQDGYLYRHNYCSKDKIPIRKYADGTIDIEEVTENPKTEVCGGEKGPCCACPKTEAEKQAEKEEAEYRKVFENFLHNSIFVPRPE

Compound: D12R: IGF-1 variant, aspartate at position 12 mutated to arginine
matrix synthesis in diseased human articular cartilage [1]: stimulated matrix synthesis in diseased human articular cartilage
cartilage matrix breakdown [2]: inhibited cartilage matrix breakdown
IL-1α-induced matrix breakdown [2]: inhibited the catabolic effects
matrix synthesis [3]: increased matrix synthesis
IL-1α-induced inhibition of proteoglycan synthesis [3]: prevented IL-1α-induced inhibition of proteoglycan synthesis
phage binding signal intensity, IGFBP-3 versus IGFBP-1 (IGFBP-3 [4]): displayed lower signal intensities when binding to IGFBP-3 compared to IGFBP-1

Compound: CC(=O)N[C@@H](CO)C(=O)N[C@@H](CCC(=O)O)C(=O)N[C@@H](CCC(=O)O)C(=O)N[C@H](C(=O)N[C@H]1CSSC[C@@H](C(=O)N[C@@H](CC(N)=O)C(N)=O)NC(=O)[C@H](CC(C)C)NC(=O)[C@H](Cc2ccc(O)cc2)NC(=O)[C@H](Cc2c[nH]c3ccccc23)NC(=O)[C@H](CCC(=O)O)NC(=O)[C@H](C)NC(=O)[C@H](C(C)C)NC(=O)[C@@H]2CCCN2C(=O)[C@H](Cc2c[nH]c3ccccc23)NC1=O)C(C)C [BP3-40] (Ac-SEEVCWPVAEWYLCN-NH2; disulfide 5-14)
matrix synthesis, IGF-1 in combination with peptide ([1]; IGF-1 40 ng/ml, peptide 0.1 mg/ml): to stimulate matrix synthesis
matrix breakdown, IGF-1 in combination with peptide [5]: appeared to enhance the ability of IGF-1 to decrease matrix breakdown

Compound: D12K: IGF-1 variant, aspartate at position 12 mutated to lysine
matrix synthesis in diseased human articular cartilage [1]: stimulated matrix synthesis in diseased human articular cartilage
cartilage matrix breakdown [2]: inhibited cartilage matrix breakdown
IL-1α-induced matrix breakdown [2]: inhibited the catabolic effects
matrix synthesis [3]: increased matrix synthesis
IL-1α-induced inhibition of proteoglycan synthesis [3]: prevented IL-1α-induced inhibition of proteoglycan synthesis
phage binding signal intensity, IGFBP-3 versus IGFBP-1 (IGFBP-3 [4]): displayed lower signal intensities when binding to IGFBP-3 compared to IGFBP-1

Continued, in another order:

IGF type I receptor activation, single-concentration KIRA (type I IGF receptor): retain biological activity
IC50 (IGFBP-3 [7]): 1.32 ± 0.25 nM
Binding to IGFBP-1 ka (IGFBP-1 [8]): 1.9 ± 0.6 ×10^4 M^−1s^−1
IC50 (IGFBP-1 [9]): 57.8 ± 20.1 nM
Specificity Relative BP-1 / Relative BP-3 (IGFBP-1 [10]): 3.6
Binding to IGFBP-3 ka (IGFBP-3 [11]): 1.1 ± 0.4 ×10^5 M^−1s^−1
Compound: F16A: IGF-1 single alanine mutant
relative specificity (IGFBP-1 [6]): 4.0

IGF type I receptor activation, single-concentration KIRA (type I IGF receptor): retain biological activity
IC50 (IGFBP-3 [7]): 3.69 ± 0.25 nM
Binding to IGFBP-1 ka (IGFBP-1 [8]): 1.5 ± 0.5 ×10^4 M^−1s^−1
IC50 (IGFBP-1 [9]): 181 ± 46 nM
Specificity Relative BP-1 / Relative BP-3 (IGFBP-1 [10]): 4.9
Binding to IGFBP-3 ka (IGFBP-3 [11]): 1.5 ± 0.5 ×10^5 M^−1s^−1
Compound: F25A: IGF-1 single alanine mutant

inhibition of 125I-IGF-1 binding to an IGFBP-3 plate (IGFBP-3 [13]): inhibition
Compound: CSCC[C@@H]1NC(=O)[C@H](Cc2c[nH]c3ccccc23)NC(=O)[C@@H]2CCCN2C(=O)CNC(=O)[C@H](CC(=O)O)NC(=O)[C@H](C)NC(=O)[C@@H](NC(=O)[C@@H](NC(=O)CNC(=O)[C@H](CCSC)NC(=O)[C@@H](N)CC(=O)O)C(C)C)CSSC[C@@H](C(=O)N[C@@H](CCC(=O)O)C(=O)N[C@@H](Cc2c[nH]c3ccccc23)C(=O)N[C@H](C(=O)N[C@@H](CCC(=O)O)C(=O)O)[C@@H](C)O)NC(=O)[C@H](C(C)C)NC(=O)[C@H](Cc2ccc(O)cc2)NC1=O [BP3-02-ox] (H-DMGVCADGPWMYVCEWTE-OH; disulfide 5-14; N-terminus and C-terminus assumed)
inhibition of 125I-IGF-1 binding to an IGFBP-1 coated plate (IGFBP-1 [12]): did not inhibit IGF-1 binding to an IGFBP-1 coated plate

IC50 (IGFBP-3 [14]): 2000 nM
inhibition of 125I-IGF-1 binding to an IGFBP-3 plate (IGFBP-3 [13]): inhibition
Compound: CSCC[C@H](NC(=O)[C@H](CC(N)=O)NC(=O)[C@@H]1CSSC[C@H](NC(=O)[C@@H](NC(=O)[C@H](CCC(=O)O)NC(=O)[C@H](CCC(=O)O)NC(=O)[C@@H](N)CO)C(C)C)C(=O)N[C@@H](Cc2c[nH]c3ccccc23)C(=O)N2CCC[C@H]2C(=O)N[C@@H](C(C)C)C(=O)N[C@@H](C)C(=O)N[C@@H](CCC(=O)O)C(=O)N[C@@H](Cc2c[nH]c3ccccc23)C(=O)N[C@@H](Cc2ccc(O)cc2)C(=O)N[C@@H](CC(C)C)C(=O)N1)C(=O)N[C@@H](Cc1c[nH]c2ccccc12)C(=O)NCC(=O)O [BP3-01-ox] (H-SEEVCWPVAEWYLCNMWG-OH; disulfide 5-14; N-terminus and C-terminus assumed)
inhibition of 125I-IGF-1 binding to an IGFBP-1 coated plate (IGFBP-1 [12]): did not inhibit IGF-1 binding to an IGFBP-1 coated plate
